Measured values reported in patent US3944498A, “Germicidal detergent containing a thienyliodonium salt” (The Dow Chemical Company, priority 1973, dated 1976).

What was measured:
[1] = test system: S. aureus; test: Nutrient agar growth test, S. aureus (Example 3); assay type: cell-based; conditions: 0.001 percent by weight, 2 days, 35°C
Text: The 4-chlorophenyl-2-thienyliodonium chloride, trifluoroacetate and trichloroacetate salts are dispersed in melted nutrient agar to produce culture media containing 0.001 percent by weight of one of the salt compounds. Such melted media are then poured into petri dishes and the solidified surface in each dish inoculated with a 24-hour broth culture, one of the organisms S. aureus and S. typhosa. In a check operation, petri dishes containing unmodified nutrient agar are each individually inoculated in the same manner with the named organisms. After two days' incubation at 35°C. the agar surface in each dish is examined for microbial growth. […] At the time of these observations the check dishes are found to support a heavy growth of the two named organisms.

[2] = test system: A. aerogenes; test: Agar plate kill test with Ivory soap, A. aerogenes; assay type: cell-based; conditions: Klebsiella aerogenes, 48 h, read-out: Percent Kill of A. aerogenes
Protocol: Phenyl-2-thienyliodonium chloride, 2,2'-bisthienyliodonium chloride, and, for comparative purposes, diphenyliodonium chloride are individually dispersed in Ivory soap to provide concentrates containing 1 part by weight of iodonium salt to 50 parts by weight of soap. The soap concentrates are serially dispersed and serially diluted with liquid nutrient agar at 42°C. to prepare culture media containing various concentrations of one of the iodonium salts. The culture media are uniformly inoculated with S. aureus and plated in petri dishes. The inoculation is carried out from broth cultures of the named organism containing about 5×10^8 organisms per milliliter in the proportion of one-tenth milliliter of bacterial culture per 20 milliliters of cultur medium containing each test compound. In a check operation, nutrient agar containing the same amount of Ivory soap is similarly inoculated with the same organism. After two days' incubation at 37°C., the plates are examined for microbial growth.
The procedure described above is repeated with varying concentrations of 4-chlorophenyl-2-thienyliodonium chloride, 3,4-dichlorophenyl-2-thienyliodonium chloride, and for comparative purposes bis(4-chlorophenyl)iodonium chloride, phenyl-4-chlorophenyliodonium chloride and bis(2,4-dichlorophenyl)iodoniumchloride in a series of tests wherein the culture media are inoculated individually with the organism A. aerogenes.
The procedure described above is once again repeated with each of 2,2'-bisthienyliodonium chloride, phenyl-2-thienyliodonium chloride, 4-bromophenyl-2-thienyliodonium chloride, bis(4-bromophenyl)iodonium chloride and bis(4-bromophenyl)iodonium bromide in a series of tests wherein the culture media are inoculated individually with the organism A. aerogenes.

[3] = Oral median lethal dose in Swiss mice (Cox strain); assay type: in vivo; conditions: mouse, in vivo, po; for LD50 at 168 h: 7 days; for LD50 at 336 h: 14 days
Protocol: (§1) Five groups of mice, each consisting of 15 males and 15 females, were given ClPhThICl in an aqueous 0.5 percent METHOCEL hydroxypropyl methylcellulose (4000 cps.) suspension at a concentration of 300 mg/ml. The compound was administered as a single oral dose at 0.2 logarithmic dose intervals (708, 1120, 1780, 2820, 4450 mg/kg) and the following mortality experience was noted:
(§2) The percent of total mortalities occurring was 16.0, 66.6, 81.5, and 91.3 at 6, 24, 48 and 72 hours post-treatment, respectively. The last death occurred in a female (1120 mg/kg group) on day 14 of the study.

[4] = test system: Swiss mice (Cox strain); test: Oral median lethal dose in Swiss mice (Cox strain); assay type: in vivo
Protocol: as §1, §2

[5] = Oral median lethal dose in Sprague-Dawley (Cox strain) rats; assay type: in vivo; conditions: rat, in vivo, po; for LD50: 7 and 14 days
Protocol: (§3) The oral median lethal dose (LD50) of ClPhThICl was also determined in Sprague-Dawley (Cox strain) rats within a weight range of 93 to 118 grams. Five groups of rats, each consisting of 10 males and 10 females, were given the compound in an aqueous 0.5 percent METHOCEL hydroxypropyl methylcellulose (4000 cps.) suspension at a concentration of 300 mg/ml. The compound was administered as a single oral dose at 0.2 logarithmic dose intervals (709, 1120, 1780, 2820, 4450 mg/kg), and the following mortality experience was noted:
(§4) The percent of total mortalities occurring was 53.9, 79.3, 85.7 and 93.6 at 6, 24, 48 and 72 hours post-treatment, respectively. The last death occurred between 72 and 96 hours post-treatment in male rats in the 1780 and 4450 mg/kg groups.

[6] = test system: Sprague-Dawley (Cox strain) rats; test: as above; assay type: in vivo
Protocol: as §3, §4

[7] = male mice, 95% confidence limits 1353-2288 mg/kg
[8] = 708 mg/kg oral, 7 Days, females
[9] = 708 mg/kg oral, 14 Days, females
[10] = 1120 mg/kg oral, 7 Days, females
[11] = 1120 mg/kg oral, 14 Days, females
[12] = 1120 mg/kg oral, 14 Days, males
[13] = 1120 mg/kg oral, 24 Hours, females
[14] = 1120 mg/kg oral, 24 Hours, males
[15] = 1780 mg/kg oral, 7 Days, females
[16] = 1780 mg/kg oral, 14 Days, females
[17] = 1780 mg/kg oral, 14 Days, males
[18] = 1780 mg/kg oral, 24 Hours, females
[19] = 1780 mg/kg oral, 24 Hours, males
[20] = 2820 mg/kg oral, 7 Days, females
[21] = 2820 mg/kg oral, 14 Days, females
[22] = 2820 mg/kg oral, 14 Days, males
[23] = 2820 mg/kg oral, 24 Hours, females
[24] = 2820 mg/kg oral, 24 Hours, males
[25] = 4450 mg/kg oral, 7 Days, females
[26] = 4450 mg/kg oral, 14 Days, females
[27] = 4450 mg/kg oral, 14 Days, males
[28] = 4450 mg/kg oral, 24 Hours, females
[29] = 4450 mg/kg oral, 24 Hours, males

## Clc1ccc([I+]c2cccs2)cc1.[Cl-] [4-Chlorophenyl-2-thienyliodonium chloride]
[1]
  microbial growth on agar surface: free of microbial growth
[2]
  killing at 1 ppm: 100%
[3]; female mice, 95% confidence limits 2300-3591 mg/kg
  LD50 at 24 h: 2700 mg/kg
[3]; male mice, 95% confidence limits 1916-2760 mg/kg
  LD50 at 24 h: 2300 mg/kg
[3]; female mice, 95% confidence limits 1172-2455 mg/kg
  LD50 at 168 h: 1700 mg/kg
[3]; [7]
  LD50 at 168 h: 1760 mg/kg
  LD50 at 336 h: 1760 mg/kg
[3]; female mice, 95% confidence limits 1264-1975 mg/kg
  LD50 at 336 h: 1580 mg/kg
[4]; [8]
  No. Dead: 1/15
[4]; 708 mg/kg oral, 7 Days, males
  No. Dead: 0/15
[4]; [9]
  No. Dead: 2/15
[4]; 708 mg/kg oral, 14 Days, males
  No. Dead: 1/15
[4]; 708 mg/kg oral, 24 Hours, females
  No. Dead: 0/15
[4]; 708 mg/kg oral, 24 Hours, males
  No. Dead: 0/15
[4]; [10]
  No. Dead: 1/15
[4]; 1120 mg/kg oral, 7 Days, males
  No. Dead: 1/15
[4]; [11]
  No. Dead: 2/15
[4]; [12]
  No. Dead: 1/15
[4]; [13]
  No. Dead: 0/15
[4]; [14]
  No. Dead: 0/15
[4]; [15]
  No. Dead: 8/15
[4]; 1780 mg/kg oral, 7 Days, males
  No. Dead: 8/15
[4]; [16]
  No. Dead: 8/15
[4]; [17]
  No. Dead: 9/15
[4]; [18]
  No. Dead: 4/15
[4]; [19]
  No. Dead: 3/15
[4]; [20]
  No. Dead: 14/15
[4]; 2820 mg/kg oral, 7 Days, males
  No. Dead: 14/15
[4]; [21]
  No. Dead: 14/15
[4]; [22]
  No. Dead: 14/15
[4]; [23]
  No. Dead: 8/15
[4]; [24]
  No. Dead: 11/15
[4]; [25]
  No. Dead: 15/15
[4]; 4450 mg/kg oral, 7 Days, males
  No. Dead: 15/15
[4]; [26]
  No. Dead: 15/15
[4]; [27]
  No. Dead: 15/15
[4]; [28]
  No. Dead: 13/15
[4]; [29]
  No. Dead: 15/15
[4]; 6 hours post-treatment
  percent of total mortalities occurring: 16.0%
[4]; 24 hours post-treatment
  percent of total mortalities occurring: 66.6%
[4]; 48 hours post-treatment
  percent of total mortalities occurring: 81.5%
[4]; 72 hours post-treatment
  percent of total mortalities occurring: 91.3%
[4]; female, 1120 mg/kg group
  time of last death: 14 days
[5]; female rats, 95% confidence limits 785-1540 mg/kg
  LD50: 1100 mg/kg
[5]; male rats, 95% confidence limits 1171-2296 mg/kg
  LD50: 1640 mg/kg
[5]; female rats, 95% confidence limits 1230-2080 mg/kg
  LD50 at 24 h: 1600 mg/kg
[5]; male rats, 95% confidence limits 1241-2610 mg/kg
  LD50 at 24 h: 1800 mg/kg
[6]; [8]
  No. Dead: 0/10
[6]; 708 mg/kg oral, 7 Days, males
  No. Dead: 1/10
[6]; [9]
  No. Dead: 0/10
[6]; 708 mg/kg oral, 14 Days, males
  No. Dead: 1/10
[6]; [10]
  No. Dead: 6/10
[6]; 1120 mg/kg oral, 7 Days, males
  No. Dead: 2/10
[6]; [11]
  No. Dead: 6/10
[6]; [12]
  No. Dead: 2/10
[6]; [13]
  No. Dead: 2/10
[6]; [14]
  No. Dead: 1/10
[6]; [15]
  No. Dead: 7/10
[6]; 1780 mg/kg oral, 7 Days, males
  No. Dead: 9/10
[6]; [16]
  No. Dead: 7/10
[6]; [17]
  No. Dead: 9/10
[6]; [18]
  No. Dead: 6/10
[6]; [19]
  No. Dead: 4/10
[6]; [20]
  No. Dead: 10/10
[6]; 2820 mg/kg oral, 7 Days, males
  No. Dead: 8/10
[6]; [21]
  No. Dead: 10/10
[6]; [22]
  No. Dead: 8/10
[6]; [23]
  No. Dead: 9/10
[6]; [24]
  No. Dead: 8/10
[6]; [25]
  No. Dead: 10/10
[6]; 4450 mg/kg oral, 7 Days, males
  No. Dead: 10/10
[6]; [26]
  No. Dead: 10/10
[6]; [27]
  No. Dead: 10/10
[6]; [28]
  No. Dead: 10/10
[6]; [29]
  No. Dead: 9/10
[6]; 6 hours post-treatment
  percent of total mortalities occurring: 53.9%
[6]; 24 hours post-treatment
  percent of total mortalities occurring: 79.3%
[6]; 48 hours post-treatment
  percent of total mortalities occurring: 85.7%
[6]; 72 hours post-treatment
  percent of total mortalities occurring: 93.6%
